Assay results: PMC12116762, “Topobexin targets the Topoisomerase II ATPase domain for beta isoform-selective inhibition and anthracycline cardioprotection” (Nature Communications, 2025)
Where two headings read alike, the source gives them in different places.

Key:
Format in all cases: biochemical
recombinant human TOP2A [1] = target: T1, recombinant human TOP2A (Homo sapiens, UniProt P11388); test: DNA decatenation assay, recombinant TOP2A
T1 construct: Using recombinant full-length human TOP2A and TOP2B enzymes; YFP (N, cleaved yes); made in house; host or cells: HEK293F
Description: The human topoisomerase II decatenation assay was performed to determine the inhibitory effects of BNS-22 and new compounds as previously described with minor modifications[14],[36]. The assay was performed using recombinant human TOP2A or TOP2B generated using the HEK293F YFP-tag expression system as previously described[18],[19],[36]. Briefly, plasmids encoding YFP-TOP2A or YFP-TOP2B were transfected into HEK293F cells (Catalog number 11625019, Thermofisher Scientific), and TOP2 proteins were isolated from cell lysates by anti-YFP nanobody affinity chromatography. After elution by TEV protease cleavage, TOP2 proteins were FPLC purified by sequential cation exchange and size exclusion chromatography. Plasmid encoding TOP2B C88Y was generated by round-the-horn PCR mutagenesis and the sequence was verified by full-plasmid sequencing. Purified TOP2 proteins were stored in a storage buffer containing 20 mM HEPES pH 7.5, 500 mM NaCl, 0.5 mM TCEP, 25% (v/v) glycerol at -80 °C. For decatenation assays, purified TOP2 proteins were incubated with 200 ng kDNA (Topogen) in a reaction buffer containing 50 mM Tris−HCl (pH 8), 100 mM NaCl, 10 mM MgCl2, 0.5 mM DTT, 2 mM ATP, 0.1 mM tris(2-carboxyethyl)phosphine (TCEP), 5% (v/v) glycerol, 70 μg/mL bovine serum albumin, and 1/10 volume of each compound diluted in 10% DMSO (final DMSO concentration 1%) for 40 min at 37 °C. The reaction was then stopped by the addition of gel loading buffer (0.5 volumes of 60% (w/v) glycerol, 60 mM EDTA, 20 mM Tris−HCl (pH 7.5), 0.5 mg/mL bromophenol blue) and the samples were placed on ice. Reaction products were resolved by agarose gel electrophoresis in TBE buffer containing GelRed stain (Biotium). Gels were visualized using an iBright CL1000 (Thermofisher Scientific). Band intensities were quantified using FIJI, and the signal of the treated samples was normalized to the value of the control (untreated sample; 100%) present on the same gel. The normalized signal of three independent measurements was then expressed as mean ± SD. Each presented data point was obtained from distinct sample. Normalized values were plotted as a function of inhibitor concentration to determine IC50 values by nonlinear regression with variable slope using Prism 9 (GraphPad).

recombinant human TOP2A [2] = target: T1, recombinant human TOP2A; test: In vitro ATPase activity of TOP2A (coupled assay)
Procedure, shortened: (§1)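 Recombinant human TOP2A or TOP2B, prediluted to 500 nM in HEPES pH 7.5/500 mM NaCl storage buffer, in an NADH-coupled ATP hydrolysis assay, ATP-initiated at 30 °C. NADH fluorescence decay (ex 340, em 480) read every 30 s for 120 cycles. Slopes background-corrected, normalized to untreated controls, and fitted for IC50.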

recombinant human TOP2B = target: T2, recombinant human TOP2B (Homo sapiens, UniProt Q02880); test: In vitro ATPase activity of TOP2B (coupled assay)
T2 construct: Using recombinant full-length human TOP2A and TOP2B enzymes; YFP (N, cleaved yes); made in house; host or cells: HEK293F
Procedure, shortened: as §1

[3] = independent replicates, normalized to 0 drug, read-out: Normalized % TOP2A activity
[4] = independent replicates, read-out: Normalized % TOP2A activity, ATPase

T1 sequence (P11388 whole entry): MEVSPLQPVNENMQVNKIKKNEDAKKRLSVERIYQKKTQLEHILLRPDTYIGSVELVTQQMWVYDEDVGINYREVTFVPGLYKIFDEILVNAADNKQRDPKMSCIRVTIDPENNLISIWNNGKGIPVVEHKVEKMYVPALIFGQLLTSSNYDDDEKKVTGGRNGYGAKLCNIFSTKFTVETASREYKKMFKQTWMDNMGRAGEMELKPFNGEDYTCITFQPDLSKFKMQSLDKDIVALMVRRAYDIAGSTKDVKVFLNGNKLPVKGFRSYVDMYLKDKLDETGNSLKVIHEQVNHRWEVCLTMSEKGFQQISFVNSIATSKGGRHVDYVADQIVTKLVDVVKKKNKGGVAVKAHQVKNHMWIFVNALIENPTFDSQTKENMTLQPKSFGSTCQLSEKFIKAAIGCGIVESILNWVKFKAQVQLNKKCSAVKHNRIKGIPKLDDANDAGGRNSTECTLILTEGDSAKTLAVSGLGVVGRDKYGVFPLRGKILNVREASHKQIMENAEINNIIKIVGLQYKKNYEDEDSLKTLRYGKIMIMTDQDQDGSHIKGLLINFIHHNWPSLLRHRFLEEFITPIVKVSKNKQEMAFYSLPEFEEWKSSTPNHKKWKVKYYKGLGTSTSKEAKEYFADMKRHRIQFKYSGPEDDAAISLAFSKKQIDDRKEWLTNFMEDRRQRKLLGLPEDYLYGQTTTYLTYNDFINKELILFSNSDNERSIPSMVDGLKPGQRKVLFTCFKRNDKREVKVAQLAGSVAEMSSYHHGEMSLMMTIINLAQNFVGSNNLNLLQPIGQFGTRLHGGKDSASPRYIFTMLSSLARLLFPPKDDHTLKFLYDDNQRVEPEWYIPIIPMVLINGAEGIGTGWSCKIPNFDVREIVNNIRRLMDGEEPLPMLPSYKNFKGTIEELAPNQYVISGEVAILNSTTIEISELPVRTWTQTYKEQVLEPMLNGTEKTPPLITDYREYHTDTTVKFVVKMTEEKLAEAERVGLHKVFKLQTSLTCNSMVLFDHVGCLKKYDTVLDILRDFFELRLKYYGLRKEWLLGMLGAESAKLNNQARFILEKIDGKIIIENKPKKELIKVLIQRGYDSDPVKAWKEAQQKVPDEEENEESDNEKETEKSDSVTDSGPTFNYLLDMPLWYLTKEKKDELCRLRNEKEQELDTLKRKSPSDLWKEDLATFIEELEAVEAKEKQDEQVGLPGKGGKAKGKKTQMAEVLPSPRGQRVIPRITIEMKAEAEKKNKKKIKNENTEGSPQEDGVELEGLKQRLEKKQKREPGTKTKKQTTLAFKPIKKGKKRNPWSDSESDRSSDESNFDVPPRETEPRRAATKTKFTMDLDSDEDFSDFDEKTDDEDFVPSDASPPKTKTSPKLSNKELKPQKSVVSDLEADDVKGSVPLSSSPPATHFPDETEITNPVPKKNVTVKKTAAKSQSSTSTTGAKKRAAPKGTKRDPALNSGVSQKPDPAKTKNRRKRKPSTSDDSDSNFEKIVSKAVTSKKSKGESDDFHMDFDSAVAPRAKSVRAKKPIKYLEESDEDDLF
T2 sequence (Q02880 1-1621 isoform Q02880-2): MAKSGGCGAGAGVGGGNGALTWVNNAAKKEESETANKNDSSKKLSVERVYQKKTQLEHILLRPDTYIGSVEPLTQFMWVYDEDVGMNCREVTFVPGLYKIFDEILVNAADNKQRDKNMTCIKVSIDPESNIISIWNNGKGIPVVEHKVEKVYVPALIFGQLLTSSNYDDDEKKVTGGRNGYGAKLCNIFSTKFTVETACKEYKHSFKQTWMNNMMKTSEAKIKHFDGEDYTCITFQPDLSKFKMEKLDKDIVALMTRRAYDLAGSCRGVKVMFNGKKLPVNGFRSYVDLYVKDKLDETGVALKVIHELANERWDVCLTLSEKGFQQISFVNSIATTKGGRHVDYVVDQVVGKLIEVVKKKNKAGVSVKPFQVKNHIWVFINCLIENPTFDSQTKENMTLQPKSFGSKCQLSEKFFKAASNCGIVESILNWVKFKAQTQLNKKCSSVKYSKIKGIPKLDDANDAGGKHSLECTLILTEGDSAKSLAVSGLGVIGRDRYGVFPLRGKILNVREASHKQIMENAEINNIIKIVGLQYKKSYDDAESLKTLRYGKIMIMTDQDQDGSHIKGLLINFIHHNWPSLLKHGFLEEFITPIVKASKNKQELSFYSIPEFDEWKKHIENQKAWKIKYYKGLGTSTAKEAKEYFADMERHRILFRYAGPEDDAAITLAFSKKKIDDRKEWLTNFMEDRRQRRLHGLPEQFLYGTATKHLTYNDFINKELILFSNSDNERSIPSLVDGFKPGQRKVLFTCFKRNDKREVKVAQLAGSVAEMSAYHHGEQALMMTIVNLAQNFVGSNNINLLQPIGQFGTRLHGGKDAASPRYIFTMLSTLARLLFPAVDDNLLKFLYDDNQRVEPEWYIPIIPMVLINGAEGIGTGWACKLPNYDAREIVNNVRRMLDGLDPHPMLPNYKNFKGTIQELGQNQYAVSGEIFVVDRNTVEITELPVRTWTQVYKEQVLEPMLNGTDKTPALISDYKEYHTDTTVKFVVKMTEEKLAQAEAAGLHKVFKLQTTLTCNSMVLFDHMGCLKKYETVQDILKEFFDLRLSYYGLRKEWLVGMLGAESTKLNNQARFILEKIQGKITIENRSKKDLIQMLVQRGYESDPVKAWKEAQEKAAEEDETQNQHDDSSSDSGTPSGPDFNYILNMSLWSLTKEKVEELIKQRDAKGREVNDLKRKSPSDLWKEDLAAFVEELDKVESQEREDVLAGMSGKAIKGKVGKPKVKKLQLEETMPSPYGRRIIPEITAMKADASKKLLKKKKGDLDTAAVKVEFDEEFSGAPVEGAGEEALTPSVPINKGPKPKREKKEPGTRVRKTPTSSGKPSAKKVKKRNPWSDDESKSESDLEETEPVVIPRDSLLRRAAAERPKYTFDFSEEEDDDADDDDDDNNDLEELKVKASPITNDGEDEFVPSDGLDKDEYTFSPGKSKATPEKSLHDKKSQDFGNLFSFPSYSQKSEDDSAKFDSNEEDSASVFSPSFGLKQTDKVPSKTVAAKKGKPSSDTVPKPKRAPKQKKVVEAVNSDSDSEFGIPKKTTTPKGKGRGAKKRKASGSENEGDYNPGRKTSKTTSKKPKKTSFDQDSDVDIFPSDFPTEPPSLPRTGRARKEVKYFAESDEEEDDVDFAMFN

**Q.** With `CCCc1cc(=O)oc2c(C(=O)N3CCCc4ccccc43)c(OCCN3CCN(C)CC3)ccc12` [topobexin (9)] as the compound, how does the remaining activity at 0.02 µM (recombinant human TOP2A [1]; 0.02 μM, independent replicates, read-out: Normalized % TOP2A activity, decatenation) read?
**A.** The remaining activity at 0.02 µM was 87.1%.

**Q.** And the remaining activity at 0.313 µM (recombinant human TOP2A [1]; 0.313 μM, independent replicates, read-out: Normalized % TOP2A activity, decatenation)?
**A.** Its remaining activity at 0.313 µM is 96.1%.

**Q.** And the remaining activity at 0.625 µM (recombinant human TOP2A [1]; 0.625 μM, independent replicates, read-out: Normalized % TOP2A activity, decatenation)?
**A.** Its remaining activity at 0.625 µM is 91.5%.

**Q.** And the IC50 (recombinant human TOP2A [1]; enzyme expressed in HEK293F, n=3)?
**A.** The IC50 was 4.8 µM.

**Q.** And the remaining activity at 0.03125 µM (recombinant human TOP2A [2]; 0.03125 μM, independent replicates, read-out: Normalized % TOP2A activity, ATPase)?
**A.** The remaining activity at 0.03125 µM was 89.4%.

**Q.** And the remaining activity at 0.0625 µM (recombinant human TOP2A [2]; [3])?
**A.** Its remaining activity at 0.0625 µM is 89.1%.

**Q.** What about the remaining activity at 0.0625 µM (recombinant human TOP2A [2]; [4]) of the same compound?
**A.** Its remaining activity at 0.0625 µM is 92.8%.

**Q.** What about the remaining activity at 0.125 µM (recombinant human TOP2A [2]; 0.125 μM, independent replicates, normalized to 0 drug, read-out: Normalized % TOP2A activity) of the same compound?
**A.** Its remaining activity at 0.125 µM is 88.8%.

**Q.** What about the remaining activity at 0.25 µM (recombinant human TOP2A [2]; [3]) of the same compound?
**A.** Its remaining activity at 0.25 µM is 87.4%.

**Q.** And the remaining activity at 0.25 µM (recombinant human TOP2A [2]; [4])?
**A.** The remaining activity at 0.25 µM was 79.6%.

**Q.** What about the remaining activity at 0.5 µM (recombinant human TOP2A [2]; 0.5 μM, independent replicates, normalized to 0 drug, read-out: Normalized % TOP2A activity) of the same compound?
**A.** The remaining activity at 0.5 µM was 81.9%.

**Q.** What about the remaining activity at 1 µM (recombinant human TOP2A [2]; 1 μM, independent replicates, normalized to 0 drug, read-out: Normalized % TOP2A activity) of the same compound?
**A.** Its remaining activity at 1 µM is 73.3%.

**Q.** What about the remaining activity at 2 µM (recombinant human TOP2A [2]; 2 μM, independent replicates, normalized to 0 drug, read-out: Normalized % TOP2A activity) of the same compound?
**A.** The remaining activity at 2 µM was 53.8%.

**Q.** And the remaining activity at 4 µM (recombinant human TOP2A [2]; 4 μM, independent replicates, normalized to 0 drug, read-out: Normalized % TOP2A activity)?
**A.** Its remaining activity at 4 µM is 26.2%.

**Q.** What about the remaining activity at 8 µM (recombinant human TOP2A [2]; [3]) of the same compound?
**A.** Its remaining activity at 8 µM is 5.71%.

**Q.** What about the remaining activity at 8 µM (recombinant human TOP2A [2]; [4]) of the same compound?
**A.** The remaining activity at 8 µM was 28.6%.

**Q.** And the remaining activity at 16 µM (recombinant human TOP2A [2]; 16 μM, independent replicates, read-out: Normalized % TOP2A activity, ATPase)?
**A.** Its remaining activity at 16 µM is 14.4%.

**Q.** What about the IC50 (recombinant human TOP2A [2]; n=3) of the same compound?
**A.** Its IC50 is 4.09 µM.

**Q.** What about the remaining activity at 0.0625 µM (recombinant human TOP2B; 0.0625 μM, independent replicates, normalized to 0 drug, read-out: Normalized % TOP2B activity) of the same compound?
**A.** The remaining activity at 0.0625 µM was 96.9%.

**Q.** What about the remaining activity at 0.125 µM (recombinant human TOP2B; 0.125 μM, independent replicates, normalized to 0 drug, read-out: Normalized % TOP2B activity) of the same compound?
**A.** The remaining activity at 0.125 µM was 95.3%.

**Q.** What about the remaining activity at 0.25 µM (recombinant human TOP2B; 0.25 μM, independent replicates, normalized to 0 drug, read-out: Normalized % TOP2B activity) of the same compound?
**A.** The remaining activity at 0.25 µM was 95.6%.

**Q.** What about the remaining activity at 0.5 µM (recombinant human TOP2B; 0.5 μM, independent replicates, normalized to 0 drug, read-out: Normalized % TOP2B activity) of the same compound?
**A.** The remaining activity at 0.5 µM was 87%.

**Q.** And the remaining activity at 1 µM (recombinant human TOP2B; independent replicates, normalized to 0 drug, read-out: Normalized % TOP2B activity)?
**A.** The remaining activity at 1 µM was 74%.

**Q.** And the remaining activity at 1 µM (recombinant human TOP2B; independent replicates, read-out: Normalized % TOP2B activity, ATPase)?
**A.** Its remaining activity at 1 µM is 16.4%.

**Q.** What about the remaining activity at 2 µM (recombinant human TOP2B; 2 μM, independent replicates, normalized to 0 drug, read-out: Normalized % TOP2B activity) of the same compound?
**A.** Its remaining activity at 2 µM is 48.9%.

**Q.** And the remaining activity at 4 µM (recombinant human TOP2B; 4 μM, independent replicates, normalized to 0 drug, read-out: Normalized % TOP2B activity)?
**A.** Its remaining activity at 4 µM is 23.7%.

**Q.** And the remaining activity at 8 µM (recombinant human TOP2B; 8 μM, independent replicates, normalized to 0 drug, read-out: Normalized % TOP2B activity)?
**A.** Its remaining activity at 8 µM is 9.64%.

**Q.** What about the “SRbeta (SRTOP2B), TOP2 ATPase activity” value (recombinant human TOP2B; TOP2A IC50 divided by TOP2B IC50) of the same compound?
**A.** Its value is 12.

**Q.** And the IC50 (recombinant human TOP2B; n=3)?
**A.** Its IC50 is 0.35 µM.
